Data as given in PubChem BioAssay (NCI).
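A five-concentration, 48-hour dose response in 96-well plates underlies each endpoint, interpolated linearly between surrounding concentrations. TGI: total growth inhibition.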

Key:
Test in all cases: DTP human tumour cell line panel, 48 h
786-0 renal = system: 786-0 renal
A498 renal = system: A498 renal
A549 NSCLC = system: A549 NSCLC
ACHN renal = system: ACHN renal
BT-549 breast = system: BT-549 breast
CAKI-1 renal = system: CAKI-1 renal
CCRF-CEM leukemia = system: CCRF-CEM leukemia
COLO 205 colon = system: COLO 205 colon
DU-145 prostate = system: DU-145 prostate
EKVX NSCLC = system: EKVX NSCLC
HCC-2998 colon = system: HCC-2998 colon
HCT-116 colon = system: HCT-116 colon
HCT-15 colon = system: HCT-15 colon
HOP-62 NSCLC = system: HOP-62 NSCLC
HOP-92 NSCLC = system: HOP-92 NSCLC
HS 578T breast = system: HS 578T breast
HT29 colon = system: HT29 colon
IGROV1 ovarian = system: IGROV1 ovarian
K-562 leukemia = system: K-562 leukemia
KM12 colon = system: KM12 colon
LOX IMVI melanoma = system: LOX IMVI melanoma
M14 melanoma = system: M14 melanoma
MCF7 breast = system: MCF7 breast
MDA-MB-231 breast = system: MDA-MB-231 breast
MDA-MB-435 = system: MDA-MB-435
MDA-N = system: MDA-N
MOLT-4 leukemia = system: MOLT-4 leukemia
NCI-H226 lung = system: NCI-H226 lung
NCI-H23 lung = system: NCI-H23 lung
NCI/ADR-RES ovarian = system: NCI/ADR-RES ovarian
OVCAR-3 ovarian = system: OVCAR-3 ovarian
OVCAR-4 ovarian = system: OVCAR-4 ovarian
OVCAR-5 ovarian = system: OVCAR-5 ovarian
OVCAR-8 ovarian = system: OVCAR-8 ovarian
PC-3 prostate = system: PC-3 prostate
RPMI-8226 leukemia = system: RPMI-8226 leukemia
RXF 393 renal = system: RXF 393 renal
SF-268 CNS = system: SF-268 CNS
SF-295 CNS = system: SF-295 CNS
SK-MEL-2 melanoma = system: SK-MEL-2 melanoma
SK-MEL-28 melanoma = system: SK-MEL-28 melanoma
SK-MEL-5 melanoma = system: SK-MEL-5 melanoma
SK-OV-3 ovarian = system: SK-OV-3 ovarian
SN12C renal = system: SN12C renal
SNB-19 CNS = system: SNB-19 CNS
SNB-75 CNS = system: SNB-75 CNS
SW-620 colon = system: SW-620 colon
T-47D breast = system: T-47D breast
TK-10 renal = system: TK-10 renal
U251 CNS = system: U251 CNS
UACC-257 melanoma = system: UACC-257 melanoma
UACC-62 melanoma = system: UACC-62 melanoma
UO-31 renal = system: UO-31 renal
HL-60(TB) leukemia = system: HL-60(TB) leukemia
NCI-H460 lung = system: NCI-H460 lung
SF-539 CNS = system: SF-539 CNS
SR leukemia = system: SR leukemia
MALME-3M melanoma = system: MALME-3M melanoma
NCI-H522 lung = system: NCI-H522 lung

Cc1ccsc1/C=N/Nc1nncc2ccccc12
TGI (786-0 renal): > 100 µM | TGI (A498 renal): > 100 µM | TGI (A549 NSCLC): > 100 µM | TGI (ACHN renal): > 100 µM | TGI (BT-549 breast): > 100 µM | TGI (CAKI-1 renal): > 100 µM | TGI (CCRF-CEM leukemia): > 100 µM | TGI (COLO 205 colon): > 100 µM | TGI (DU-145 prostate): > 100 µM | TGI (EKVX NSCLC): > 100 µM | TGI (HCC-2998 colon): > 100 µM | TGI (HCT-116 colon): > 100 µM | TGI (HCT-15 colon): > 100 µM | TGI (HOP-62 NSCLC): > 100 µM | TGI (HOP-92 NSCLC): > 100 µM | TGI (HS 578T breast): > 100 µM | TGI (HT29 colon): > 100 µM | TGI (IGROV1 ovarian): > 100 µM | TGI (K-562 leukemia): > 100 µM | TGI (KM12 colon): > 100 µM | TGI (LOX IMVI melanoma): > 100 µM | TGI (M14 melanoma): > 100 µM | TGI (MCF7 breast): > 100 µM | TGI (MDA-MB-231 breast): > 100 µM | TGI (MDA-MB-435): > 100 µM | TGI (MDA-N): > 100 µM | TGI (MOLT-4 leukemia): > 100 µM | TGI (NCI-H226 lung): > 100 µM | TGI (NCI-H23 lung): > 100 µM | TGI (NCI/ADR-RES ovarian): > 100 µM | TGI (OVCAR-3 ovarian): > 100 µM | TGI (OVCAR-4 ovarian): > 100 µM | TGI (OVCAR-5 ovarian): > 100 µM | TGI (OVCAR-8 ovarian): > 100 µM | TGI (PC-3 prostate): > 100 µM | TGI (RPMI-8226 leukemia): > 100 µM | TGI (RXF 393 renal): > 100 µM | TGI (SF-268 CNS): > 100 µM | TGI (SF-295 CNS): > 100 µM | TGI (SK-MEL-2 melanoma): 92 µM | TGI (SK-MEL-28 melanoma): > 100 µM | TGI (SK-MEL-5 melanoma): > 100 µM | TGI (SK-OV-3 ovarian): > 100 µM | TGI (SN12C renal): > 100 µM | TGI (SNB-19 CNS): > 100 µM | TGI (SNB-75 CNS): > 100 µM | TGI (SW-620 colon): > 100 µM | TGI (T-47D breast): > 100 µM | TGI (TK-10 renal): > 100 µM | TGI (U251 CNS): > 100 µM | TGI (UACC-257 melanoma): > 100 µM | TGI (UACC-62 melanoma): > 100 µM | TGI (UO-31 renal): > 100 µM

COc1cccc(CC2Cc3ccccc3CC(=O)N2)c1 (stereo not given)
TGI (A549 NSCLC): > 100 µM | TGI (ACHN renal): > 100 µM | TGI (BT-549 breast): 92.1 µM | TGI (CAKI-1 renal): 68.6 µM | TGI (CCRF-CEM leukemia): > 100 µM | TGI (COLO 205 colon): > 100 µM | TGI (DU-145 prostate): > 100 µM | TGI (EKVX NSCLC): > 100 µM | TGI (HCC-2998 colon): > 100 µM | TGI (HCT-116 colon): > 100 µM | TGI (HL-60(TB) leukemia): > 100 µM | TGI (HOP-62 NSCLC): 72.5 µM | TGI (HOP-92 NSCLC): > 100 µM | TGI (HS 578T breast): 68.2 µM | TGI (HT29 colon): > 100 µM | TGI (IGROV1 ovarian): > 100 µM | TGI (K-562 leukemia): > 100 µM | TGI (KM12 colon): > 100 µM | TGI (LOX IMVI melanoma): 70.9 µM | TGI (M14 melanoma): 93.3 µM | TGI (MCF7 breast): 92 µM | TGI (MDA-MB-231 breast): 79.2 µM | TGI (MDA-MB-435): > 100 µM | TGI (MDA-N): > 100 µM | TGI (MOLT-4 leukemia): > 100 µM | TGI (NCI-H226 lung): > 100 µM | TGI (NCI-H23 lung): > 100 µM | TGI (NCI-H460 lung): 72.8 µM | TGI (NCI/ADR-RES ovarian): > 100 µM | TGI (OVCAR-3 ovarian): > 100 µM | TGI (OVCAR-4 ovarian): > 100 µM | TGI (OVCAR-5 ovarian): > 100 µM | TGI (OVCAR-8 ovarian): > 100 µM | TGI (PC-3 prostate): > 100 µM | TGI (RPMI-8226 leukemia): > 100 µM | TGI (RXF 393 renal): > 100 µM | TGI (SF-268 CNS): > 100 µM | TGI (SF-295 CNS): > 100 µM | TGI (SF-539 CNS): > 100 µM | TGI (SK-MEL-2 melanoma): > 100 µM | TGI (SK-MEL-28 melanoma): > 100 µM | TGI (SK-MEL-5 melanoma): 54.6 µM | TGI (SK-OV-3 ovarian): > 100 µM | TGI (SN12C renal): > 100 µM | TGI (SNB-19 CNS): > 100 µM | TGI (SNB-75 CNS): > 100 µM | TGI (SR leukemia): > 100 µM | TGI (SW-620 colon): > 100 µM | TGI (T-47D breast): > 100 µM | TGI (TK-10 renal): > 100 µM | TGI (U251 CNS): > 100 µM | TGI (UACC-257 melanoma): > 100 µM | TGI (UACC-62 melanoma): > 100 µM | TGI (UO-31 renal): > 100 µM

Cn1c2c(c3ccccc31)CC(=S)N1CCCC(CC2O)C1 (stereo not given)
TGI (786-0 renal): > 100 µM | TGI (A498 renal): > 100 µM | TGI (A549 NSCLC): > 100 µM | TGI (ACHN renal): > 100 µM | TGI (BT-549 breast): > 100 µM | TGI (CAKI-1 renal): > 100 µM | TGI (COLO 205 colon): > 100 µM | TGI (DU-145 prostate): > 100 µM | TGI (HCC-2998 colon): > 100 µM | TGI (HCT-116 colon): > 100 µM | TGI (HCT-15 colon): > 100 µM | TGI (HOP-92 NSCLC): > 100 µM | TGI (HS 578T breast): > 100 µM | TGI (HT29 colon): > 100 µM | TGI (K-562 leukemia): > 100 µM | TGI (KM12 colon): > 100 µM | TGI (LOX IMVI melanoma): > 100 µM | TGI (MALME-3M melanoma): > 100 µM | TGI (MCF7 breast): > 100 µM | TGI (MDA-MB-231 breast): > 100 µM | TGI (MDA-MB-435): > 100 µM | TGI (MDA-N): > 100 µM | TGI (NCI-H226 lung): > 100 µM | TGI (NCI-H23 lung): > 100 µM | TGI (NCI-H460 lung): > 100 µM | TGI (NCI-H522 lung): > 100 µM | TGI (NCI/ADR-RES ovarian): > 100 µM | TGI (OVCAR-4 ovarian): > 100 µM | TGI (OVCAR-8 ovarian): > 100 µM | TGI (PC-3 prostate): > 100 µM | TGI (RPMI-8226 leukemia): > 100 µM | TGI (SF-268 CNS): > 100 µM | TGI (SF-295 CNS): > 100 µM | TGI (SF-539 CNS): > 100 µM | TGI (SK-MEL-2 melanoma): > 100 µM | TGI (SK-MEL-28 melanoma): > 100 µM | TGI (SK-MEL-5 melanoma): > 100 µM | TGI (SK-OV-3 ovarian): > 100 µM | TGI (SN12C renal): > 100 µM | TGI (SNB-19 CNS): > 100 µM | TGI (SNB-75 CNS): > 100 µM | TGI (SW-620 colon): > 100 µM | TGI (T-47D breast): > 100 µM | TGI (TK-10 renal): > 100 µM | TGI (U251 CNS): > 100 µM | TGI (UACC-257 melanoma): > 100 µM | TGI (UACC-62 melanoma): > 100 µM | TGI (UO-31 renal): > 100 µM
